Assay results published in patent US9862998B2, “Conformational probes and methods for sequencing nucleic acids” (Illumina, Inc., priority 2010, dated 2018).
Entries after “also recorded” stand apart in the source; their conditions may differ.

B1: Cy3AF647: RB69V510CE766C polymerase labeled with donor/acceptor pair Cy3/AF647 at cysteine residues (conjugate, UniProt Q38087 1-903, looked up, variant V510C E766C)
DNA-directed DNA polymerase: MKEFYLTVEQIGDSIFERYIDSNGRERTREVEYKPSLFAHCPESQATKYFDIYGKPCTRKLFANMRDASQWIKRMEDIGLEALGMDDFKLAYLSDTYNYEIKYDHTKIRVANFDIEVTSPDGFPEPSQAKHPIDAITHYDSIDDRFYVFDLLNSPYGNVEEWSIEIAAKLQEQGGDEVPSEIIDKIIYMPFDNEKELLMEYLNFWQQKTPVILTGWNVESFDIPYVYNRIKNIFGESTAKRLSPHRKTRVKVIENMYGSREIITLFGISVLDYIDLYKKFSFTNQPSYSLDYISEFELNVGKLKYDGPISKLRESNHQRYISYNIIDVYRVLQIDAKRQFINLSLDMGYYAKIQIQSVFSPIKTWDAIIFNSLKEQNKVIPQGRSHPVQPYPGAFVKEPIPNRYKYVMSFDLTSLYPSIIRQVNISPETIAGTFKVAPLHDYINAVAERPSDVYSCSPNGMMYYKDRDGVVPTEITKVFNQRKEHKGYMLAAQRNGEIIKEALHNPNLSCDEPLDVDYRFDFSDEIKEKIKKLSAKSLNEMLFRAQRTEVAGMTAQINRKLLINSLYGALGNVWFRYYDLRNATAITTFGQMALQWIERKVNEYLNEVCGTEGEAFVLYGDTDSIYVSADKIIDKVGESKFRDTNHWVDFLDKFARERMEPAIDRGFREMCEYMNNKQHLMFMDREAIAGPPLGSKGIGGFWTGKKRYALNVWDMEGTRYAEPKLKIMGLETQKSSTPKAVQKALKECIRRMLQEGEESLQEYFKCFEKEFRQLNYISIASVSSANNIAKYDVGGFPGPKCPFHIRGILTYNRAIKGNIDAPQVVEGEKVYVLPLREGNPFGDKCIAWPSGTEITDLIKDDVLHWMDYTVLLEKTFIKPLEGFTSAAKLDYEKKASLFDMFDF
modifications: Cy3/AF647 dye labels
notes: RB69V510CE766C polymerase labeled with donor/acceptor pair Cy3/AF647 at cysteine residues
B2: CF555AF647: RB69V510CE766C polymerase labeled with donor/acceptor pair CF555/AF647 at cysteine residues (conjugate, UniProt Q38087 1-903, looked up, variant V510C E766C)
DNA-directed DNA polymerase: B1 DNA-directed DNA polymerase
modifications: CF555/AF647 dye labels
notes: RB69V510CE766C polymerase labeled with donor/acceptor pair CF555/AF647 at cysteine residues

Assays:
Type in all cases: biochemical
[1] = molecular target: Alexa 488 and 532 dual-labeled KF (K550C/L744C/C907G Klenow Fragment) (Escherichia coli, UniProt P00582, C907G/K550C/L744C); set-up: made in house; host or cells: E. coli BL21(DE3); details: for time durations of the FRET signal for incorporation into the primer: AF488 donor fluorescence, stopped flow, FIG. 5-7; for AF488 fluorescence duration measured for the incorporation: dTTP versus Gamma-ANS-dTTP, FIG. 12; for FRET duration, correct versus incorrect incorporation: position complementary to cytosine, dGTP correct, dCTP incorrect, FIG. 8
Chain of Alexa 488 and 532 dual-labeled KF (K550C/L744C/C907G Klenow Fragment) (P00582 324-928 K550C/L744C/C907G): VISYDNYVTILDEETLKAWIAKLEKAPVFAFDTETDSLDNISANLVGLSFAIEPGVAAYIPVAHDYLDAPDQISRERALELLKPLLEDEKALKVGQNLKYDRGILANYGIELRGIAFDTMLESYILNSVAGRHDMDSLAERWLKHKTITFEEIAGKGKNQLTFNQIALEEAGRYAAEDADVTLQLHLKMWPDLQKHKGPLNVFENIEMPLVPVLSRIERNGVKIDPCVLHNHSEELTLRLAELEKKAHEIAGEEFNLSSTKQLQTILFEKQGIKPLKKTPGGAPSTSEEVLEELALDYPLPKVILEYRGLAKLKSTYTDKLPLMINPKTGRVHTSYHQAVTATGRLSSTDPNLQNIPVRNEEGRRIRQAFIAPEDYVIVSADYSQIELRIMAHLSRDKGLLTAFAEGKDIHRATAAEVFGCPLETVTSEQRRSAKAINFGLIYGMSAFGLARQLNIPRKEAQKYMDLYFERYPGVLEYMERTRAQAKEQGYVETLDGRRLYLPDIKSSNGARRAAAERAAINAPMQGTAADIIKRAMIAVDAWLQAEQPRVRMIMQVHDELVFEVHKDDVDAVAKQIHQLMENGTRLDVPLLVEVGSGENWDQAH
Source text: The Klenow Fragments (KF) was produced as follows. KF was mutated to replace cysteine 907 with glycine, to replace leucine 744 (in the fingers domain) with cysteine and to replace lysine 550 (in the thumb domain) with cysteine, thereby producing K550C/L744C/C907G KF. Standard mutagenesis techniques were used to produce K550C/L744C/C907G KF as described in the manual of the QuikChange® site-directed mutagenesis kit from Stratagene/Agilent (La Jolla, Calif.). The K550C/L744C/C907G KF was cloned into the pET15b plasmid using the NdeI and BamHI restriction sites, and expressed in E. coli BL21(DE3) cells. The K550C/L744C/[…] KF was purified as described in Joyce, et al. Biochemistry, 47 (23): 6103-6116 (2008), which is incorporated herein by reference. The purified K550C/L744C/C907C KF was chemically modified using the thiol-reactive maleimide to introduce the Alexa488 fluorescent donor dye at cysteine 550
Conformational changes in the dual labeled KF enzyme from the open to closed state can be detected based on fluorescence resonance energy transfer (FRET) between the AF488 fluorescent donor dye on the thumb domain and AF532 fluorescence acceptor dye on the fingers domain. The KF enzyme can be bound to a primer-template nucleic acid complex in an open conformation. In the open conformation the AF488 fluorescent donor dye when excited with light at a wavelength of 495 nm will emit fluorescence at a wavelength of 519 nm. However, upon binding of an appropriate nucleotide to the dual labeled KF-template-primer complex the dual labeled KF enzyme changes from the open state to the closed state. The closed state brings the AF488 fluorescent donor dye on the thumb domain into proximity with the AF532 fluorescence acceptor dye on the finger domain such that the AF488 fluorescent donor dye when excited transfers energy to the AF532 fluorescence acceptor dye. This FRET results in a detectable emission from the AF532 fluorescence acceptor dye at a wavelength of […]. As such, binding of the appropriate nucleotide can be detected as increased emission at 554 nm wavelength. Furthermore, differential time durations of the closed state can be used to distinguish different nucleotides that are incorporated into the primer by dual labeled KF.
The real-time fluorescence change from dual labeled KF was measured in an Applied Photophysics SX20 stopped-flow spectrometer by monitoring changes in AF 488 dye fluorescence following the mixing of the PolI(KF)-DNA binary complex with a nucleotide in the reaction buffer containing 10 mM Tris-HCl, pH 8.0, 50 mM NaCl, 1 mM dithiothreitol and 10 mM MgCl2.
(§1) Dual labeled KF was produced as described in Example III. FRET from dual labeled KF was measured by stopped flow kinetics also as described in Example III. 5-TAMRA Pol β was prepared as described in Example IV. The real time fluorescence change from 5-TAMRA Pol β was measured by stopped flow kinetics also as described in Example IV.

[2] = molecular target: T1, 5-TAMRA Pol β (W325C Pol β) (Homo sapiens, UniProt P06746, W325C); assay: Stopped-flow 5-TAMRA fluorescence detection of nucleotide incorporation by 5-TAMRA Pol β; details: for amplitudes and durations for the 5-TAMRA emission shift: incorporated at an appropriate position in a template-bound primer, FIG. 10, 11, 13
T1 construct: made in house; host or cells: E. coli BL21(DE3)
Protocol: 5-TAMRA Pol β was prepared as follows. Human Pol β was mutated to replace Tryptophan 325 (in the fingers domain) with cysteine to produce W325C Pol β. Standard mutagenesis techniques were used to produce W325C Pol β as described in Example III. The W325C Pol β was cloned in the pET15b plasmid, expressed in E. coli BL21(DE3) cells and purified as described in Dunlap and Tsai, Biochemistry, 41 (37): 11226-11235 (2002), which is incorporated herein by reference. The purified W325C Pol β was chemically modified to introduce the 5-TAMRA fluorescent dye at cysteine 325, thereby producing 5-TAMRA Pol β.
Conformational changes in the 5-TAMRA Pol β enzyme from the open to closed state can be detected based on a fluorescent emission change from the environmentally sensitive 5-TAMRA dye. The spectral and emission intensity changes from the 5-TAMRA dye when the polymerase changes to the closed state. The 5-TAMRA Pol β enzyme can be bound to a primer-template nucleic acid complex in an open conformation. In the open conformation the 5-TAMRA dye when excited with light at a wavelength of 542 nm will emit fluorescence at a wavelength of 568 nm. However upon binding of an appropriate nucleotide to the 5-TAMRA Pol β-primer-template binary complex, the 5-TAMRA Pol β enzyme changes from the open state to the closed state causing the 5-TAMRA dye to experience a different environment. This change in environment results in a detectable fluorescent emission change from the TAMRA dye at the wavelength of 568 nm. As such, binding of the appropriate nucleotide can be detected as a fluorescent emission change at 568 nm wavelength. Furthermore, differential time durations of the closed state can be used to distinguish different nucleotides that are incorporated into the primer by 5-TAMRA Pol β.
The real-time fluorescence change from 5-TAMRA Pol β was measured in the Applied Photophysics SX20 stopped-flow spectrometer by monitoring changes in 5-TAMRA dye fluorescence following the mixing of the 5-TAMRA Pol β-DNA binary complex with a nucleotide in a reaction buffer containing 50 mM Tris-HCl, pH 7.5, 50 mM KCl, 1 mM Dithiothreitol and 5 mM MgCl2 as described in Example III.
as §1

[3] = system: nucleic acid duplex of extendable 3'-OH primer and AF488 template; assay: FRET-based primer extension assay (AF488 quenching); details: AF488 quenching over time by Cy3-dCTP incorporation, FIG. 16
Protocol: Functionality of the Cy3AF647 and CF555AF647 conjugates of RB69V510CE766C were confirmed using a FRET-based primer extension assay as follows. Extension was carried out on a nucleic acid duplex composed of an extendable 3′-OH primer and a template with a 7 base overhang. The extendable sequence was TGGAACG. In addition, the template contained an AF488 dye at the 5′ position. The extension reaction mix was composed of 50 mM ACES pH 7.2, 50 mM NaCl, 10 mM DTT, 10 mM Mg′, 1 μM dTTP, 1 μM dGTP, 1 μM dATP and 0.1 μM Cy3-dCTP. Upon extension, the Cy3 quenches the AF488. The control reactions were carried out under the same conditions except that dTTP was removed to prevent extension. A SpectraMax M5 plate reader was used to monitor the AF488 quenching over time. […] The plot confirms that both conjugates were functional in extending a primed nucleic acid.

Row | Molecule | time durations of the FRET signal for incorporation into the primer [1] | amplitudes and durations for the 5-TAMRA emission shift [2] | other results
1 | Nc1ncnc2c1ncn2[C@H]1C[C@H](O)[C@@H](COP(=O)(O)OP(=O)(O)OP(=O)(O)O)O1 [dATP] | very similar | different amplitudes and durations | –
2 | Cc1cn([C@H]2C[C@H](O)[C@@H](COP(=O)(O)OP(=O)(O)OP(=O)(O)O)O2)c(=O)[nH]c1=O [dTTP] | – | different amplitudes and durations; also recorded: could be distinguished from each other | AF488 fluorescence duration measured for the incorporation [1]: substantially different
3 | Nc1ccn([C@H]2C[C@H](O)[C@@H](COP(=O)(O)OP(=O)(O)OP(=O)(O)O)O2)c(=O)n1 [dCTP] | – | different amplitudes and durations | FRET duration, correct versus incorrect incorporation [1]: could be distinguished; incorporation detected by wavelength shift for the 5-TAMRA dye ([2]; correct or incorrect nucleotide, FIG. 9A, 9B): could be detected
4 | Gamma-ANS-dTTP | – | could be distinguished from each other | AF488 fluorescence duration measured for the incorporation [1]: substantially different
5 | Nc1nc2c(ncn2[C@H]2C[C@H](O)[C@@H](COP(=O)(O)OP(=O)(O)OP(=O)(O)O)O2)c(=O)[nH]1 [dGTP] | very similar | different amplitudes and durations | FRET duration, correct versus incorrect incorporation [1]: could be distinguished
6 | O=c1ccn([C@H]2C[C@H](O)[C@@H](COP(=O)(O)OP(=O)(O)OP(=O)(O)O)O2)c(=O)[nH]1 [dUTP] | differed | – | –
7 | Nc1ccn([C@H]2C[C@H](O)[C@@H](COP(O)(=S)OP(=O)(O)OP(=O)(O)O)O2)c(=O)n1 (stereo partly drawn) [1-alpha-thiol-dCTP] | substantially different | – | –
8 | 1-alpha-borano-dCTP | substantially different | could be distinguished from each other | –
9 | B1 | – | – | functionality in extending a primed nucleic acid [3]: functional
10 | B2 | – | – | functionality in extending a primed nucleic acid [3]: functional
